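Tested at 5 concentrations; 48 h exposure; 96-well plates; endpoints linearly interpolated, else capped at highest concentration. GI50 is the concentration that inhibits growth by half.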 Activity calls are given as the source filed them. Rule as the data show it: active = GI50 up to about 1.1 µM and inactive = higher. Residues, ends and D or L forms follow the SMILES beside them. *: point of attachment. Boc = CC(C)(C)OC(=O)*
Key:
Test in all cases: inhibition of tumour cell growth, NCI panel, 48 h
[1] = test system: CCRF-CEM
[2] = test system: OVCAR-8
[3] = test system: Malme-3M
[4] = test system: SF-268
[5] = test system: HL-60
[6] = test system: SF-295
[7] = test system: NCI-H23
[8] = test system: M14
[9] = test system: 786-0
[10] = test system: OVCAR-5
[11] = test system: EKVX
[12] = test system: COLO 205
[13] = test system: HOP-62
[14] = test system: RPMI-8226
[15] = test system: HCC 2998
[16] = test system: SF-539
[17] = test system: NCI-H522

Measured: GI50

CCOC(=O)c1cc2c([nH]1)c(OC(C)=O)cc1c2ccn1Cc1ccccc1
inactive: [1] > 100 µM | [2] > 100 µM | [3] > 100 µM | [4] > 100 µM | [5] > 100 µM | [6] > 100 µM | [7] > 100 µM | [8] > 100 µM | [9] > 100 µM | [10] > 100 µM | [11] 99.5 µM | [12] > 100 µM | [13] > 100 µM | [14] > 100 µM | [15] > 100 µM | [16] > 100 µM

N=C/N=C/C(=S)O[C@@H]1C(=O)N2CCC[C@@]23CCCC[C@@H]13
inactive: [1] > 12.5 µM | [2] > 12.5 µM | [3] > 12.5 µM | [17] > 12.5 µM | [4] > 12.5 µM | [5] > 12.5 µM | [6] > 12.5 µM | [7] > 12.5 µM | [8] > 12.5 µM | [9] > 12.5 µM | [10] > 12.5 µM | [11] > 12.5 µM | [12] > 12.5 µM | [13] > 12.5 µM | [14] > 12.5 µM | [15] > 12.5 µM

NS(=O)(=O)c1ccc2c(c1)OCCOCCOCCOCCO2
inactive: [1] > 100 µM | [2] > 100 µM | [3] > 100 µM | [17] > 100 µM | [4] > 100 µM | [5] > 100 µM | [6] > 100 µM | [7] > 100 µM | [8] > 100 µM | [9] > 100 µM | [11] > 100 µM | [12] > 100 µM | [13] > 100 µM | [14] > 100 µM | [15] > 100 µM | [16] > 100 µM

CCOC(=O)/C(C#N)=C1\c2c([nH]c(=S)[nH]c2=O)Oc2ccc3ccccc3c21
inactive: [1] 1.55 µM | [2] 54.7 µM | [3] 68.7 µM | [17] 19 µM | [4] 24.3 µM | [5] 2.64 µM | [6] > 100 µM | [7] 88.1 µM | [8] 43.8 µM | [9] 53.8 µM | [10] > 100 µM | [11] 22.6 µM | [12] 19.5 µM | [13] 42.2 µM | [14] 33 µM | [15] 59.4 µM

C=C1C[C@@H](O)[C@@H](Br)C(C)(C)[C@@]12C=CC(=O)CC2
inactive: [1] > 100 µM | [2] > 100 µM | [3] > 100 µM | [17] > 100 µM | [4] > 100 µM | [5] > 100 µM | [6] > 100 µM | [7] > 100 µM | [8] > 100 µM | [9] > 100 µM | [10] 3.18 µM | [12] 1.77 µM | [13] > 100 µM | [14] > 100 µM | [15] > 78.7 µM | [16] > 100 µM

CC(C)(C)OC(=O)NC(Cc1ccc(O)cc1)C(=O)NC(CCCCN)C(=O)O (stereo not drawn) (Boc-Tyr-Lys-OH; configuration not given here)
inactive: [1] 33.4 µM | [2] 35.2 µM | [3] 28.1 µM | [17] 6.41 µM | [4] 34.6 µM | [5] 23.7 µM | [7] 18.5 µM | [8] 17.4 µM | [9] 28.4 µM | [10] 25 µM | [13] 20.6 µM | [14] 32.9 µM | [15] 28.9 µM

Cn1cc2c3ccccc3nc-2c2ccccc21 [ISOCRYPTOLEPINE]
inactive: [1] 1.45 µM | [2] 1.6 µM | [3] 2.28 µM | [17] 1.41 µM | [4] 2.33 µM | [5] 2.04 µM | [6] 2.78 µM | [7] 1.51 µM | [8] 1.63 µM | [9] 2.1 µM | [10] 2.14 µM | [12] 1.46 µM | [13] 1.59 µM | [14] 1.53 µM | [15] 1.6 µM | [16] 1.72 µM

Reference: ChEMBL document CHEMBL1201862, “PubChem BioAssay data set” (2004)
